According to patent US20260191807A1, “COMPOSITIONS AND METHODS FOR TREATMENT OF PRADER-WILLI SYNDROME” (ERX Pharmaceuticals Inc., priority 2022, published 2026):
Values joined by “and” are separate entries in the source; they are usually repeats but may differ in a detail not shown here. Equal values may be shown once.

Legend:
Type in all cases: in vivo
C57BL/6-Magel2 mice = experiment: Daily food intake of C57BL/6 Magel2 mice; settings: for Food intake (food weights in g/day): mean
Experimental: In the study disclosed herein, celastrol at was administered intraperitoneally using a 30G needle at a dose of 0.2 mg/kg to five female Magel2 homozygous mice (−/−) and four male mice heterozygous for Magel2 (−/+). In addition, vehicle was administered to four male mice heterozygous for Magel2 (−/+) for 21 days.
C57BL/6-Magel2 mice were bred for purpose from cryo recovery by Jackson Labs (Bar Harbor, ME) and arrived at the testing facility at age 8 weeks.
All treatment volumes were 10 mL/kg. Utilizing the art-recognized nestlet shredding mouse model, the dose was administered by gavage (as capsule dosing is challenging in mice). Celastrol and the vehicle control were administered intraperitoneally using a 30G needle. All treatments were administered daily in the afternoon at 17:00 h, 1 hour before dark cycle from Day 1 to end of dosing.
Celastrol was dissolved in 50% Solutol/50% DMAC. The resulting stock solution aliquoted and stored at −80° C. until treatment day. On the day of treatment an aliquot of the stock solution was thawed and diluted 1:20 with saline to obtain the desired dosing solution strength in 5%
Daily food intake was calculated based on remaining food weight compared to food weight on the previous day using an Ohaus model CS 200 balance.

C57BL/6 DIO mice [1] = experiment: Body weights of C57BL/6 DIO mice during daily treatment; settings: Celastrol 0.2 mg/kg IP daily; for Body weights (expressed as a percentage of day-1 weight) / Body weights (in grams): Belaronib 0.3 mg/kg SC, mean
C57BL/6 DIO mice [2] = experiment: Nestlet shredding test in C57BL/6 DIO mice; settings: Belaronib 0.3 mg/kg SC, Celastrol 0.2 mg/kg IP daily, mean
Experimental: C57BL/6 mice were treated with test compound (Celastrol) or controls as shown in the table below from Day 1 to Day 15. […] One mouse was excluded from the study because it appeared resistant to nestlet shredding prior to treatment.
Male C57BL/6 DIO mice were obtained from Jackson Labs (Bar Harbor, ME). The mice arrived at ages 17 weeks and mice were housed 3 per cage on arrival. Prior to dosing in the study, the mice were singly housed.
All treatment volumes were 10 mL/kg. Utilizing the art-recognized nestlet shredding mouse model, […]. Celastrol and the vehicle control were administered intraperitoneally using a 30G needle. Beloranib was administered subcutaneously using a 30G needle. All treatments were administered daily in the afternoon at 17:00 h, 1 hour before dark cycle from Day 1 to end of dosing.
Celastrol was dissolved in a pharmaceutically-acceptable excipient, e.g., 50% Solutol/50% DMAC, and this stock solution aliquoted and stored at −80° C. until treatment day. On the day of treatment, an aliquot of the stock solution was thawed and diluted […] with saline to obtain the desired dosing solution strength in 5% Solutol/5% dimethylacetamide/90% saline. The vehicle control was 5% Solutol/5% dimethylacetamide/90% saline. Beloranib was dissolved in 100% DMSO, and this stock solution was aliquoted and stored at −80° C. until treatment day. On the day of treatment, an aliquot of the stock solution was thawed and diluted 1:10 with deionized (DI) water to obtain the desired dosing solution strength in 10% DMSO.
The nestlet shredding test is an art-recognized animal model for human repetitive, anxiety, and/or compulsive behaviors. In the nestlet shredding test, a nestlet comprised of pulped fiber, e.g., cotton fiber, is preweighed and placed on top of cage bedding and the amount of the nestlet remaining intact after a test session of pre-determined time is evaluated.
Nestlet shredding was determined on day 1, day 6, day 11 and day 15 by placing a fresh nestlet prior to the dark cycle and measuring the weight of the remaining nestlet at 12 and 24 hours on an Ohaus model CS 200 balance. Percent shredding was calculated based on the initial nestlet weight.

CC1=C(O)C(=O)C=C2C1=CC=C1[C@@]2(C)CC[C@@]2(C)[C@@H]3C[C@](C)(C(=O)O)CC[C@]3(C)CC[C@]12C [Celastrol]
Food intake (food weights in g/day) (C57BL/6-Magel2 mice; Day 1, Magel2 (−/+) heterozygous male mice, 0.2 mg/kg IP QD): 6.6 g/day
Food intake (food weights in g/day) (C57BL/6-Magel2 mice; Day 1, Magel2 (−/−) homozygous female mice, 0.2 mg/kg IP QD): 5.9 g/day
Food intake (food weights in g/day) (C57BL/6-Magel2 mice; Day 2, Magel2 (−/+) heterozygous male mice, 0.2 mg/kg IP QD): 4.9 g/day
Food intake (food weights in g/day) (C57BL/6-Magel2 mice; Day 2, Magel2 (−/−) homozygous female mice, 0.2 mg/kg IP QD): 5.9 g/day
Food intake (food weights in g/day) (C57BL/6-Magel2 mice; Day 4, Magel2 (−/+) heterozygous male mice, 0.2 mg/kg IP QD): 7.0 g/day
Food intake (food weights in g/day) (C57BL/6-Magel2 mice; Day 4, Magel2 (−/−) homozygous female mice, 0.2 mg/kg IP QD): 6.4 g/day
Food intake (food weights in g/day) (C57BL/6-Magel2 mice; Day 6, Magel2 (−/+) heterozygous male mice, 0.2 mg/kg IP QD): 6.3 g/day
Food intake (food weights in g/day) (C57BL/6-Magel2 mice; Day 6, Magel2 (−/−) homozygous female mice, 0.2 mg/kg IP QD): 6.2 g/day
Food intake (food weights in g/day) (C57BL/6-Magel2 mice; Day 8, Magel2 (−/+) heterozygous male mice, 0.2 mg/kg IP QD): 5.2 g/day
Food intake (food weights in g/day) (C57BL/6-Magel2 mice; Day 8, Magel2 (−/−) homozygous female mice, 0.2 mg/kg IP QD): 4.6 g/day
Food intake (food weights in g/day) (C57BL/6-Magel2 mice; Day 10, Magel2 (−/+) heterozygous male mice, 0.2 mg/kg IP QD): 3.1 g/day
Food intake (food weights in g/day) (C57BL/6-Magel2 mice; Day 10, Magel2 (−/−) homozygous female mice, 0.2 mg/kg IP QD): 2.4 g/day
Food intake (food weights in g/day) (C57BL/6-Magel2 mice; Day 11, Magel2 (−/+) heterozygous male mice, 0.2 mg/kg IP QD): 3.9 g/day
Food intake (food weights in g/day) (C57BL/6-Magel2 mice; Day 11, Magel2 (−/−) homozygous female mice, 0.2 mg/kg IP QD): 1.4 g/day
Food intake (food weights in g/day) (C57BL/6-Magel2 mice; Day 13, Magel2 (−/+) heterozygous male mice, 0.2 mg/kg IP QD): 5.1 g/day
Food intake (food weights in g/day) (C57BL/6-Magel2 mice; Day 13, Magel2 (−/−) homozygous female mice, 0.2 mg/kg IP QD): 4.0 g/day
Food intake (food weights in g/day) (C57BL/6-Magel2 mice; Day 15, Magel2 (−/+) heterozygous male mice, 0.2 mg/kg IP QD): 5.9 g/day
Food intake (food weights in g/day) (C57BL/6-Magel2 mice; Day 15, Magel2 (−/−) homozygous female mice, 0.2 mg/kg IP QD): 5.2 g/day
Food intake (food weights in g/day) (C57BL/6-Magel2 mice; Day 17, Magel2 (−/+) heterozygous male mice, 0.2 mg/kg IP QD): 3.2 g/day
Food intake (food weights in g/day) (C57BL/6-Magel2 mice; Day 17, Magel2 (−/−) homozygous female mice, 0.2 mg/kg IP QD): 2.2 g/day
Food intake (food weights in g/day) (C57BL/6-Magel2 mice; Day 18, Magel2 (−/+) heterozygous male mice, 0.2 mg/kg IP QD): 2.5 g/day
Food intake (food weights in g/day) (C57BL/6-Magel2 mice; Day 18, Magel2 (−/−) homozygous female mice, 0.2 mg/kg IP QD): 3.2 g/day
Food intake (food weights in g/day) (C57BL/6-Magel2 mice; Day 20, Magel2 (−/+) heterozygous male mice, 0.2 mg/kg IP QD): 6.2 g/day
Food intake (food weights in g/day) (C57BL/6-Magel2 mice; Day 20, Magel2 (−/−) homozygous female mice, 0.2 mg/kg IP QD): 4.6 g/day
Food intake (food weights in g/day) (C57BL/6-Magel2 mice; Day 21, Magel2 (−/+) heterozygous male mice, 0.2 mg/kg IP QD): 5.0 g/day
Food intake (food weights in g/day) (C57BL/6-Magel2 mice; Day 21, Magel2 (−/−) homozygous female mice, 0.2 mg/kg IP QD): 11.1 g/day
Food intake (food weights in g/day) (C57BL/6-Magel2 mice; Day −2 (before dosing), Magel2 (−/+) heterozygous male mice): 5.0 g/day
Food intake (food weights in g/day) (C57BL/6-Magel2 mice; Day −2 (before dosing), Magel2 (−/−) homozygous female mice): 3.2 g/day
difference in food intake between the groups (in words) (C57BL/6-Magel2 mice; treated Magel2 (−/+) and (−/−) groups versus vehicle, 0.2 mg/kg IP QD): not a significant difference in food intake
Body weights (expressed as a percentage of day-1 weight) (C57BL/6 DIO mice [1]; Day 1): 100.0%
Body weights (in grams) (C57BL/6 DIO mice [1]; Day 1): 44.8 grams and 45.4 grams
Body weights (expressed as a percentage of day-1 weight) (C57BL/6 DIO mice [1]; Day 2): 98.6%
Body weights (in grams) (C57BL/6 DIO mice [1]; Day 2): 44.8 grams
Body weights (expressed as a percentage of day-1 weight) (C57BL/6 DIO mice [1]; Day 3): 95.8%
Body weights (in grams) (C57BL/6 DIO mice [1]; Day 3): 43.5 grams
Body weights (expressed as a percentage of day-1 weight) (C57BL/6 DIO mice [1]; Day 4): 92.8%
Body weights (in grams) (C57BL/6 DIO mice [1]; Day 4): 42.2 grams
Body weights (expressed as a percentage of day-1 weight) (C57BL/6 DIO mice [1]; Day 5): 89.6%
Body weights (in grams) (C57BL/6 DIO mice [1]; Day 5): 40.7 grams
Body weights (expressed as a percentage of day-1 weight) (C57BL/6 DIO mice [1]; Day 6): 86.2%
Body weights (in grams) (C57BL/6 DIO mice [1]; Day 6): 39.2 grams
Body weights (expressed as a percentage of day-1 weight) (C57BL/6 DIO mice [1]; Day 7): 83.8%
Body weights (in grams) (C57BL/6 DIO mice [1]; Day 7): 38.1 grams
Body weights (expressed as a percentage of day-1 weight) (C57BL/6 DIO mice [1]; Day 8): 81.3%
Body weights (in grams) (C57BL/6 DIO mice [1]; Day 8): 37.0 grams
Body weights (expressed as a percentage of day-1 weight) (C57BL/6 DIO mice [1]; Day 9): 79.2%
Body weights (in grams) (C57BL/6 DIO mice [1]; Day 9): 36.0 grams
Body weights (expressed as a percentage of day-1 weight) (C57BL/6 DIO mice [1]; Day 10): 76.5%
Body weights (in grams) (C57BL/6 DIO mice [1]; Day 10): 34.8 grams
Body weights (expressed as a percentage of day-1 weight) (C57BL/6 DIO mice [1]; Day 11): 73.9%
Body weights (in grams) (C57BL/6 DIO mice [1]; Day 11): 33.6 grams
Body weights (expressed as a percentage of day-1 weight) (C57BL/6 DIO mice [1]; Day 12): 72.2%
Body weights (in grams) (C57BL/6 DIO mice [1]; Day 12): 32.8 grams
Body weights (expressed as a percentage of day-1 weight) (C57BL/6 DIO mice [1]; Day 13): 71.1%
Body weights (in grams) (C57BL/6 DIO mice [1]; Day 13): 32.3 grams
Body weights (expressed as a percentage of day-1 weight) (C57BL/6 DIO mice [1]; Day 14): 70.1%
Body weights (in grams) (C57BL/6 DIO mice [1]; Day 14): 31.9 grams
Body weights (expressed as a percentage of day-1 weight) (C57BL/6 DIO mice [1]; Day 15): 69.2%
Body weights (in grams) (C57BL/6 DIO mice [1]; Day 15): 31.4 grams
body weight lost (percentage of day 1 body weight) (C57BL/6 DIO mice [1]; at day 15, Beloranib 0.3 mg/kg SC, vehicle-treated mice lost 15.5%): 30.8%
Nestlet Shredding (percent of nestlet shredded) (C57BL/6 DIO mice [2]; Day 1, 12 hour): 94.4%
Nestlet Shredding (percent of nestlet shredded) (C57BL/6 DIO mice [2]; Day 6, 12 hour): 70.1%
Nestlet Shredding (percent of nestlet shredded) (C57BL/6 DIO mice [2]; Day 6, 24 hour): 93.6%
Nestlet Shredding (percent of nestlet shredded) (C57BL/6 DIO mice [2]; Day 11, 12 hour): 43.7%
Nestlet Shredding (percent of nestlet shredded) (C57BL/6 DIO mice [2]; Day 11, 24 hour): 71.0%
Nestlet Shredding (percent of nestlet shredded) (C57BL/6 DIO mice [2]; Day 15, 12 hour): 50.9%
Nestlet Shredding (percent of nestlet shredded) (C57BL/6 DIO mice [2]; Day 15, 24 hour): 63.3%
